In patent US9393250B2, “Phthalocyanine compounds useful as RecA inhibitors and methods of using same” (University of Saskatchewan, priority 2012, dated 2016):

Legend:
ATCC25922 cells = test: Hydroxyl radical production (HPF, flow cytometry); format: cell-based, Escherichia coli; conditions: 4,4-Fe-PcTs 25 μM; ciprofloxacin 40 nM; three hours
Experimental: To confirm that 4,4-Fe-PcTs inhibited the SOS response by a mechanism independent of blocking hydroxyl radical production, the ability of 4,4-Fe-PcTs to decrease hydroxyl radical levels in the presence of bactericidal antibiotics was assayed. Hydroxyphenyl fluorescein was used to measure hydroxyl radical formation in bacteria. Hydroxyl radical production was measured using flow cytometry with […] fluorescein (HPF, Invitrogen) as described previously. ATCC25922 cells were grown to OD600 of 0.3. For cultures treated with 4,4-Fe-PcTs, the 4,4-Fe-PcTs was added to give a concentration of 25 μM and the culture was incubated for three hours at 37° C. […] Samples (˜10^6 cells) were taken immediately before the addition of antibiotics (time zero) and every hour for three hours. The samples were washed once in PBS, and resuspended in PBS prior to analysis by flow cytometry. Hydroxyl radical production was monitored using a flow cytometer (Beckman Coulter, Inc.) with a 488 nm argon laser and a 515-545 nm emission. Flow cytometry data were analyzed using Flowjo (Tree Star, Inc.).

[1] = test system: Staphylococcus aureus ATCC29213; test: Antibiotic sensitivity assay (CFUs/ml), S. aureus; format: cell-based; conditions: compound 25 μM; ciprofloxacin 6.5 μM
Experimental: (§1) Bacterial cultures were diluted to 10^5 cells/mL in LB broth (ATCC25922) or MH broth (ATCC27853, ATCC29212, ATCC29213). Antibiotics and/or phthalocyanines were added at indicated concentrations and the culture was incubated at 37° C. Samples were collected at 0, 24, 48, and 72 hours and plated on LB agar (ATCC25922) or tryptic soy blood agar (ATCC27853, ATCC29212, ATCC29213) to determine CFUs/ml.
(§2) To confirm that the activity of 4,4-Fe-PcTs was not specific to the gram-negative ATCC25922 E. coli, the ability of 4,4-Fe-PcTs to potentiate the activity of ciprofloxacin in another gram-negative (Pseudomonas aeruginosa ATCC27853) strain and two gram-positive (Staphylococcus aureus ATCC29213 and Enterococcus faecalis ATCC29212) strains was evaluated.

[2] = test system: SOS response (E. coli strain SS996); test: SOS induction, GFP regulated by the sulA SOS promoter, flow cytometry; format: cell-based, Escherichia coli; conditions: 4,4-Fe-PcTs 25 μM, three hours
Experimental: To confirm that the bactericidal antibiotic potentiating activity of 4,4-Fe-PcTs was correlated with reduced SOS induction, SOS induction in the E. coli strain SS996 was monitored. This strain contains a green fluorescent protein (GFP) regulated by the sulA SOS promoter.
SS996 cultures were grown to an optical density at 600 nm (OD600) of 0.3. For cultures treated with 4,4-Fe-PcTs, the 4,4-Fe-PcTs was added to give a concentration of 25 μM and the culture was incubated for three hours at 37° C. Antibiotics were then added to yield concentrations of 2.5 μM (CFX), 40 μM (AMP), 43 μM (KAN), 21 μM (TET), 46 μM (CAM), or 808 μM (SPECT). Samples (˜10^6 cells) were taken immediately before the addition of antibiotics (time zero) and every hour for three hours. Samples were washed once in PBS, and resuspended in PBS prior to analysis by flow cytometry. GFP expression was monitored using flow cytometer (Beckman Coulter, Inc.) with a 488 nm argon laser and a 515-545 nm emission. Flow cytometry data were analyzed using Flowjo (Tree Star, Inc.).

EcRecA = EcRecA (Escherichia coli, UniProt P0A7G6); conditions: in presence of ATPγS
EcRecA, sequence (P0A7G6 whole entry): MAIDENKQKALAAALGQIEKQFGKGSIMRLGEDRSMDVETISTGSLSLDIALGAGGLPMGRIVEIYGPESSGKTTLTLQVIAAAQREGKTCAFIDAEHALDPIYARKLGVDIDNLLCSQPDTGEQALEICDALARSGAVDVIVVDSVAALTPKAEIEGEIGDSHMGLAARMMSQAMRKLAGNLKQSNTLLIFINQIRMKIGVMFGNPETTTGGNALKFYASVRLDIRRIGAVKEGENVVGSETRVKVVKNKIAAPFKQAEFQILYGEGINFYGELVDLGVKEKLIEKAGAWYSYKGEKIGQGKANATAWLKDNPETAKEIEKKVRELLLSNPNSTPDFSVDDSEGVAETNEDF
Experimental: EcRecA (5 μM) was incubated with indicated concentrations of 4,4-Fe-PcTs or 3,4-Cu-PcTs in strand exchange buffer (2 mM ATP-γ-S(Sigma-Aldrich), 10 mM MgAc2, 100 mM KAc, 50 mM Hepes-Tris buffer at pH 7.6, 0.1% v/v 2-mercaptoethanol) for 10 minutes at 37° C. FAM43 (0.35 μM) was added and the reaction was incubated for 2 minutes. The reaction was started by the addition of 0.35 μM of the dsDNA substrate (annealing product of equimolar oligonucleotides 45A and 55A). The reaction was stopped at 30 minutes by adding EDTA to a final concentration of 20 mM and trypsin to a final concentration of 1 μg/μl. After 10 minutes, 10 μl of the reaction was mixed with 5 μl of loading buffer (30% glycerol and 0.1% bromophenol blue) and products were resolved using a 20% native acrylamide gel. The fluorescence emission in the gel was recorded using a Kodak GelLogic 200 system.

E. coli ATCC25922 = test: Filamentation assay; format: cell-based, Escherichia coli; conditions: 4,4-Fe-PcTs 25 μM; CFX 40 nM; three hours
Experimental: Overnight cultures of E. coli ATCC25922 were grown in LB at 37° C. […] The cells were stained using the standard Gram staining technique and imaged using light microscopy at 100× magnification.

[3] = test system: Pseudomonas aeruginosa ATCC27853; test: Antibiotic sensitivity assay (CFUs/ml), P. aeruginosa; format: cell-based; conditions: compound 25 μM; ciprofloxacin 6.5 μM
Experimental: as §1, §2

mouse bone marrow cells = test: Viability of mouse bone marrow cells; format: cell-based; conditions: maximum concentration tested (100 μM); 24 and 48 hours
From the text: Error bars represent the standard deviation from three independent experiments.

iron (III) phthalocyanine-4,4′,4″,4′″-tetrasulfonic acid [4,4-Fe-PcTs]
effect on ciprofloxacin-induced hydroxyl radicals (ATCC25922 cells): did not alter | potentiation of ciprofloxacin activity [1]: potentiated the activity of ciprofloxacin | effect on ampicillin-induced SOS response (GFP) ([2]; AMP 40 μM): reduced the ability | effect on ciprofloxacin-induced SOS response (GFP) ([2]; CFX 2.5 μM): reduced the ability | inhibition of DNA strand-exchange (EcRecA): inhibited | effect on ciprofloxacin-induced in vitro filamentation (E. coli ATCC25922): reduced the ability of ciprofloxacin to induce | potentiation of ciprofloxacin activity [3]: potentiated the activity of ciprofloxacin | toxicity to mouse bone marrow (mouse bone marrow cells): not toxic
